Experiment [1] concerns the target T1, Full length human recombinant HDAC11 (Homo sapiens, UniProt Q96DB2).
T1 construct: Full length human recombinant HDAC6 and HDAC11 proteins were expressed in baculoviral system
T1 sequence (Q96DB2 1-347): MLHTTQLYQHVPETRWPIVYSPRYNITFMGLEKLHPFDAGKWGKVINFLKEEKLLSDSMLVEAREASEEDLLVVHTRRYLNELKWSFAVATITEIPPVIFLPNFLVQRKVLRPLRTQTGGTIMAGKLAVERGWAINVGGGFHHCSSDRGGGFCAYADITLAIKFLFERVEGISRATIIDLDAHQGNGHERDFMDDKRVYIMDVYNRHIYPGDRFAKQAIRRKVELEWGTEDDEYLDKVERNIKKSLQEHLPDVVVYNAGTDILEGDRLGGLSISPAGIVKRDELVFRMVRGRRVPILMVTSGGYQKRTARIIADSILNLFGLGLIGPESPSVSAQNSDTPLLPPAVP
Description: In vitro histone deacetylase assay, enzymatic HDAC11 (electrophoretic mobility shift assay). It is filed as biochemical. The following applies: 10 nM HDAC11; 2 μM peptide substrate FAM-RHKK(tri-fluor-Ac)—NH2; 25° C.; 12 concentrations; read-out: HDAC11 Activity Range (IC50). The protocol:
(§1) The enzymatic HDAC6 and HDAC11 assays were performed using electrophoretic mobility shift assay. Full length human recombinant HDAC6 and HDAC11 proteins were expressed in baculoviral system and purified by affinity chromatography. The enzymatic reactions were assembled in 384 well plates in a total volume of 25 μL in a reaction buffer composing: 100 mM HEPES, pH 7.5, 25 mM KCl, 0.1% bovine serum albumin, 0.01% Triton X-100, 1% DMSO (from compounds) 2 μM of the fluorescently labeled peptide substrate and enzyme. The enzymes were added at a final concentration of 1 nM for HDAC6, and 10 nM for HDAC11. The peptide substrate FAM-RHKK(Ac)—NH2 was used for HDAC6, and FAM-RHKK(tri-fluor-Ac)—NH2 for HDAC11. The compounds were tested at 12 concentrations spaced by 3× dilution intervals. Negative control samples (0%-inhibition in the absence of inhibitor) and positive control samples (100%-inhibition) were assembled in replicates of four in each assay plate. The reactions were incubated at 25° C. and quenched by the addition of 45 μL of termination buffer (100 mM HEPES, pH 7.5, 0.01% Triton X-100, 0.05% SDS).
(§2) The terminated assay plates were analyzed on LabChip® 3000 microfluidic electrophoresis instrument (Perkin Elmer/Caliper Life Sciences). The fluorescence intensity of the electrophoretically separated de-acetylated product and substrate peptide was measured. Activity in each sample was determined as the product to sum ratio (PSR): P/(S+P), where P is the peak height of the product peptide and S is the peak height of the substrate peptide. Percent inhibition (Pinh) is determined using following equation:
(§3) Pinh=(PSR0%−PSRinh)/(PSR0%−PSR100%)*100, where PSRinh is the product sum ratio in the presence of inhibitor, PSR0% is the average product sum ration in the absence of inhibitor and PSR100% is the average product sum ratio in 100%-inhibition control samples. The IC50 values of inhibitors were determined by fitting the %-inhibition curves with 4 parameter dose-response model using XLfit 4 software.
(§4) As set forth in Table-26 and Table-27, below, IC5o values are defined as follows: IC50≦0.1 μM (+++); IC50>0.1 μM and ≦0.5 μM (++); IC50>0.5 μM (+).
On the technique in general: Mobility shift assays separate free from complexed probe on a gel.

Experiment [2] has as its target T2, Full length human recombinant HDAC6 (Homo sapiens, UniProt Q9UBN7).
T2 construct: Full length human recombinant HDAC6 and HDAC11 proteins were expressed in baculoviral system
T2 sequence (Q9UBN7 1-1215): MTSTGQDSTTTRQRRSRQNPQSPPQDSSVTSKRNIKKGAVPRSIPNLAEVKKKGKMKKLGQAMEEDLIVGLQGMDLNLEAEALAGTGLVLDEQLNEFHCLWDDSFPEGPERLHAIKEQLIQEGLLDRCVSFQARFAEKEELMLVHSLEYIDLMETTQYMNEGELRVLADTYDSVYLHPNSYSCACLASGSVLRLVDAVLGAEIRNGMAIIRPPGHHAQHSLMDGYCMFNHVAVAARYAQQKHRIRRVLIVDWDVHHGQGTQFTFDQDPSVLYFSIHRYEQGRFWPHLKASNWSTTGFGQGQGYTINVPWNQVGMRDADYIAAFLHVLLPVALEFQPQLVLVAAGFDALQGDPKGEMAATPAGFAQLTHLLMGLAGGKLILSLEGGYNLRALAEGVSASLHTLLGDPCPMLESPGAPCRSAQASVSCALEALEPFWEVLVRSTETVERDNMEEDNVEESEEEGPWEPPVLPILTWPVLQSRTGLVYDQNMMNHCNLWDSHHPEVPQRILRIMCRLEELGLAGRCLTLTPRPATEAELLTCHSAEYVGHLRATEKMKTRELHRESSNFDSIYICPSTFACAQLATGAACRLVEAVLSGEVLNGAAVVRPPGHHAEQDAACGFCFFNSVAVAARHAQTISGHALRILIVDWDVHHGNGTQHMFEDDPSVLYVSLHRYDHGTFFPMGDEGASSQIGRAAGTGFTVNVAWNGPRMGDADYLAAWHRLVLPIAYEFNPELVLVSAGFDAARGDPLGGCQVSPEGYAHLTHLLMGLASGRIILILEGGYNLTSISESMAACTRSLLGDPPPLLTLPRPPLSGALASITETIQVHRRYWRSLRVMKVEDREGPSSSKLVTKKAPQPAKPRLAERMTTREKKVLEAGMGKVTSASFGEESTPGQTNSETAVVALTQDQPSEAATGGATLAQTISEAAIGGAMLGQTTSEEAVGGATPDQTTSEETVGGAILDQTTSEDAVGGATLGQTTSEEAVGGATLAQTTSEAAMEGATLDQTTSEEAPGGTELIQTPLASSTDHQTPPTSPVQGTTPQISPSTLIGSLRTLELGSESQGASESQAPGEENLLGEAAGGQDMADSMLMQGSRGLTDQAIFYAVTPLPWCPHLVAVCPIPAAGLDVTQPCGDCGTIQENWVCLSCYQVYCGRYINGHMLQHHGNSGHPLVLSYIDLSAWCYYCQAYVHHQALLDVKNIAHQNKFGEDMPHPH
The experiment can be described thus: In vitro histone deacetylase assay, enzymatic HDAC6 (electrophoretic mobility shift assay). The note with it: 1 nM HDAC6; 2 μM peptide substrate FAM-RHKK(Ac)—NH2; 25° C.; 12 concentrations; read-out: HDAC6 Activity Range (IC50). The class given is biochemical. The protocol: as §1, §2, §3, §4

The values below come from patent US9637453B2, “3-spirocyclic-6-hydroxamic acid tetralins as HDAC inhibitors” (Forma Therapeutics, Inc., priority 2015, dated 2017).

What is called IC50 is the midpoint of a concentration-inhibition curve. Consider `Cc1ccccc1CN1CC[C@@]2(CCc3ccc(C(=O)NO)cc3C2)C1=O` [Compound I-59, (S)—N-hydroxy-1′-(2-methylbenzyl)-2′-oxo-3,4-dihydro-1H-spiro[naphthalene-2,3′-pyrrolidine]-7-carboxamide], for which the IC50 in experiment [1] was greater than 500 nM; in experiment [2], no more than 100 nM.
The like results for `COCCCN1C[C@@]2(CCc3ccc(C(=O)NO)cc3C2)CC1=O` [Compound I-135, (R)—N-hydroxy-1′-(3-methoxypropyl)-5′-oxo-3,4-dihydro-1H-spiro[naphthalene-2,3′-pyrrolidine]-7-carboxamide] were, in that order, greater than 500 nM and no more than 100 nM.
The corresponding values for `O=C(NO)c1ccc2c(c1)C[C@]1(CC2)CCN(c2ccccn2)C1=O` [Compound I-43, (R)—N-hydroxy-2′-oxo-1′-(pyridin-2-yl)-3,4-dihydro-1H-spiro[naphthalene-2,3′-pyrrolidine]-7-carboxamide] are greater than 500 nM and no more than 100 nM.
The like results for `COc1cccc(CN2CC[C@@]3(CCc4ccc(C(=O)NO)cc4C3)C2=O)c1` [Compound I-69, (S)—N-hydroxy-1′-(3-methoxybenzyl)-2′-oxo-3,4-dihydro-1H-spiro[naphthalene-2,3′-pyrrolidine]-7-carboxamide] were, in that order, greater than 500 nM and no more than 100 nM.
Regarding `O=C(NO)c1ccc2c(c1)C[C@]1(CC2)CCN(Cc2cc(Cl)ccc2Cl)C1=O` [Compound I-94, (R)-1′-(2,5-dichlorobenzyl)-N-hydroxy-2′-oxo-3,4-dihydro-1H-spiro[naphthalene-2,3′-pyrrolidine]-7-carboxamide], the IC50 in experiment [1] and in experiment [2] was no more than 100 nM in each case.
As to `CC(C)n1c(CN2CC[C@@]3(CCc4ccc(C(=O)NO)cc4C3)C2=O)nc2ccccc21` [Compound I-66, (S)—N-hydroxy-1′-((1-isopropyl-1H-benzo[d]imidazol-2-yl)methyl)-2′-oxo-3,4-dihydro-1H-spiro[naphthalene-2,3′-pyrrolidine]-7-carboxamide], the IC50 was greater than 500 nM in experiment [1] and no more than 100 nM in experiment [2].
The corresponding values for `O=C(NO)c1ccc2c(c1)C[C@@]1(CC2)CC(=O)N(CC2COC2)C1` [Compound I-147, (S)—N-hydroxy-1′-(oxetan-3-ylmethyl)-5′-oxo-3,4-dihydro-1H-spiro[naphthalene-2,3′-pyrrolidine]-7-carboxamide] are greater than 500 nM and no more than 100 nM.
The corresponding values for `O=C(NO)c1ccc2c(c1)C[C@@]1(CC2)CCN(Cc2ccc3ccccc3c2)C1=O` [Compound I-77, (S)—N-hydroxy-1′-(naphthalen-2-ylmethyl)-2′-oxo-3,4-dihydro-1H-spiro[naphthalene-2,3′-pyrrolidine]-7-carboxamide] are 100 to 500 nM and no more than 100 nM.
For `COc1ccc(CN2CCC3(CCc4ccc(C(=O)NO)cc4O3)CC2)cc1` [II-7, N-hydroxy-1′-(4-methoxybenzyl)spiro[chromane-2,4′-piperidine]-7-carboxamide], the half-maximal inhibitory concentration (IC50) in experiment [1] and in experiment [2] was greater than 500 nM in each case.
Take `O=C(NO)c1ccc2c(c1)OC1(CC2)CCN(C(=O)Nc2ccccc2)CC1` [II-4, N7-hydroxy-N1′-phenylspiro[chroman-2,4′-piperidine]-1′,7-dicarboxamide]: the values for the IC50 in experiment [1] and in experiment [2] were greater than 500 nM and no more than 100 nM, respectively.
The like results for `O=C(NO)c1ccc2c(c1)C[C@@]1(CC2)CCN(C/C=C/c2ccccc2)C1=O` [Compound I-58, (S)-1′-cinnamyl-N-hydroxy-2′-oxo-3,4-dihydro-1H-spiro[naphthalene-2,3′-pyrrolidine]-7-carboxamide] were, in that order, 100 to 500 nM and no more than 100 nM.
In the case of `O=C(NO)c1ccc2c(c1)C[C@]1(CC2)CCN(Cc2ccc3ccccc3c2)C1=O` [Compound I-104, (R)—N-hydroxy-1′-(naphthalen-2-ylmethyl)-2′-oxo-3,4-dihydro-1H-spiro[naphthalene-2,3′-pyrrolidine]-7-carboxamide], the IC50 in experiment [1] and in experiment [2] was no more than 100 nM in each case.
On to `O=C(NO)c1ccc2c(c1)C[C@]1(CC2)CC(=O)N(CC2CCC2)C1` [Compound I-133, (R)-1′-(cyclobutylmethyl)-N-hydroxy-5′-oxo-3,4-dihydro-1H-spiro[naphthalene-2,3′-pyrrolidine]-7-carboxamide], for which the results for the IC50 in experiment [1] and in experiment [2] were greater than 500 nM and no more than 100 nM, respectively.
The corresponding values for `Cc1ccc(N2CC[C@@]3(CCc4ccc(C(=O)NO)cc4C3)C2=O)c(C)c1` [Compound I-113, (S)-1′-(2,4-dimethylphenyl)-N-hydroxy-2′-oxo-3,4-dihydro-H-spiro[naphthalene-2,3′-pyrrolidine]-7-carboxamide] are greater than 500 nM and no more than 100 nM.
The like results for `O=C(NO)c1ccc2c(c1)C[C@]1(CC2)CCN(c2nc3ccccc3[nH]2)C1=O` [Compound I-32, (R)-1′-(1H-benzo[d]imidazol-2-yl)-N-hydroxy-2′-oxo-3,4-dihydro-1H-spiro[naphthalene-2,3′-pyrrolidine]-7-carboxamide] were, in that order, greater than 500 nM and no more than 100 nM.
On to `O=C(NO)c1ccc2c(c1)CC1(CC2)CCN(Cc2ccncc2)C1=O` (stereo not drawn) [Compound I-22, N-hydroxy-2′-oxo-1′-(pyridin-4-ylmethyl)-3,4-dihydro-1H-spiro[naphthalene-2,3′-pyrrolidine]-7-carboxamide], for which the concentration for half-maximal inhibition (IC50) in experiment [1] was greater than 500 nM; in experiment [2], no more than 100 nM.
The like results for `O=C(NO)c1ccc2c(c1)C[C@]1(CC2)CCN(c2cnc3ccccn23)C1=O` [Compound I-111, (R)—N-hydroxy-1′-(imidazo[1,2-a]pyridin-3-yl)-2′-oxo-3,4-dihydro-1H-spiro[naphthalene-2,3′-pyrrolidine]-7-carboxamide] were, in that order, 100 to 500 nM and no more than 100 nM.
The like results for `CC#CCN1CC[C@]2(CCc3ccc(C(=O)NO)cc3C2)C1=O` [Compound I-83, (R)-1′-(but-2-yn-1-yl)-N-hydroxy-2′-oxo-3,4-dihydro-1H-spiro[naphthalene-2,3′-pyrrolidine]-7-carboxamide] were, in that order, greater than 500 nM and no more than 100 nM.
